# In patent US20110098325A1, “PYRIDINE BENZAMIDES AND PYRAZINE BENZAMIDES USED AS PKD INHIBITORS” (CANCER RESEARCH TECHNOLOGY LIMITED, priority 2006, published 2011):
# Biological target: T1, human full length PKD2 (Homo sapiens, UniProt Q9BZL6)
# T1 construct: human full length PKD2 at ˜100 μg/mL was purchased from Upstate Ltd; purchased Upstate Ltd 14-506
# T1 sequence (Q9BZL6 1-878): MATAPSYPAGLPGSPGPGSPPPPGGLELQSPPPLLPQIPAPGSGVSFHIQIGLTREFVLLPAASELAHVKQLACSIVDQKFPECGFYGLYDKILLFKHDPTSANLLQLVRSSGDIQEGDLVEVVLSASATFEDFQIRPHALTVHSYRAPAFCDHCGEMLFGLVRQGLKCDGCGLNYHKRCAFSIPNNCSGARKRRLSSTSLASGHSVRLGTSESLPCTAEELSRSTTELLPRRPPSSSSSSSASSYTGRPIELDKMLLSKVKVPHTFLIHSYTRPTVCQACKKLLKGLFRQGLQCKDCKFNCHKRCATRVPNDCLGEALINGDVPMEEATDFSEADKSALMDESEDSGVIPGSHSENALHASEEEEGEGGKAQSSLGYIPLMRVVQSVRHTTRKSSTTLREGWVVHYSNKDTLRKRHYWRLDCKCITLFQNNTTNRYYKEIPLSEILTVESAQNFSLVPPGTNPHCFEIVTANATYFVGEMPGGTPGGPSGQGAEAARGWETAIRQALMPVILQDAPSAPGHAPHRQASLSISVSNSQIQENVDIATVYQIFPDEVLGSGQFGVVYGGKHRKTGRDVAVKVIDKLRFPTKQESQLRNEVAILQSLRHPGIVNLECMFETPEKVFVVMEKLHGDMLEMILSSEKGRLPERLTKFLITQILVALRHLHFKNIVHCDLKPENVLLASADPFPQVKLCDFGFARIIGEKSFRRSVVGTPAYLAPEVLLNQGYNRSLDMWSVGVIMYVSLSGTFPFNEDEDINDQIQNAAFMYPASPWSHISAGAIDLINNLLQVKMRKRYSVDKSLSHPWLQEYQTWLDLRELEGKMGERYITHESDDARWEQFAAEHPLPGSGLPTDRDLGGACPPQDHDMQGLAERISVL
# Assay: PKD2 (Human Full Length) Enzyme Activity Assay (IMAP fluorescence polarisation)
# Assay type: biochemical
# Settings: stands directly after the PKD2 data (b743-b745); read-out: IC50, printed as PKD1 (Human Full Length) Enzyme Activity Assay
# Method: Kinase Assay Reaction Buffer: This consisted of 0.22 μM filtered 25 mM HEPES and 10 mM MgCl2 pH 7.5.
# Kinase: human full length PKD2 at ˜100 μg/mL was purchased from Upstate Ltd (Product code 14-506), and obtained from aliquots stored at −70° C. It was prepared with a final concentration of 0.1 μg/mL by diluting 1:300 in Reaction Buffer (30 μL per 9 mL-5 mL per plate with an additional 4 mL dead volume) and vortexing prior to use. It is necessary to check this concentration regularly in case of enzyme degradation.
# Substrate: Fluorescein labelled glycogen synthase-derived peptide (FI)-KKLNRTLSVA (also known as MAPKAP K2 substrate) was obtained from Molecular Devices (Product code R7127). […]
# 5 μL Kinase/Substrate in Reaction Buffer was added to ‘test’ and all ‘control’ wells of a Corning black low binding 384 well (90 μL volume) microplate to give 0.1 μg/mL and 2 μM reaction concentration respectively. […] The fluorescence polarisation of the peptide substrate was measured using an analyst (Molecular devices) microplate reader with a single read at Ex485 Em535 (Analyst settings: Z Height 5 mm, G Factor 0.95, Reads/well 1, Integration 100000 μs, Gain Sensitivity 2).
# Percentage inhibition was calculated based on activity of the test sample minus the average values in the blank wells relative to the average values measured in control wells minus the average values in the blank wells. […]
row,IC50 [µM],Compound
1,0.42,"COc1cc(-c2cncc(-c3cccc(C(=O)NCCN(C)C)c3)n2)ccc1O [X-007, N-(2-Dimethylamino-ethyl)-3-[6-(4-hydroxy-3-methoxy-phenyl)-pyrazin-2-yl]-benzamide]"
2,0.032,"COc1cc(-c2cc(-c3cccc(C(=O)NCCN(C)C)c3)cnc2N)ccc1O [Y-059, 3-[6-Amino-5-(4-hydroxy-3-methoxy-phenyl)-pyridin-3-yl]-N-(2-dimethylamino-ethyl)-benzamide]"
